Values quoted from earlier work in patent US10595479B2, “Induced mutagenesis” (Purdue Research Foundation, priority 2014, dated 2020).

System: maize
Settings: pollen EMS protocol in maize, tested molecularly

CCOS(C)(=O)=O [EMS, ethyl methanesulfonate]
density of mutations: about 2 mutations per Mb of DNA
